{
  "source": "patent US20230331685A1",
  "about": "“HERBICIDAL COMPOUNDS AND METHODS OF USE THEREOF” (AG Plenus Ltd, priority 2020, published 2023)",
  "format_in_all_cases": "in vivo",
  "key": {"Solanum nigrum": {"test_system": "Solanum nigrum", "test": "LTP post-emergence greenhouse test", "details": "Dosage 2000 g/ha"}, "Eragrostis teff": {"test_system": "Eragrostis teff", "test": "HTPS pre-emergence application on monocot model plant", "protocol": "The plates were placed in a controlled greenhouse in a random order inside a bath which allows flooding irrigation with tap water supplemented with a fertilizer. Applied compounds were dissolved into a final solution of 50% acetone, 49.9% DDW, 0.1% tween-20. A 96 well plate was used as a stock plate for preparing application solutions for 8 repeats. Each row contained different concentrations per chemical. Maximal concentration for application was 1.5 Kg/Ha and dilution factor is 2.5. Chemical application was performed one day after thinning out in a chemical hood. […] applied on first two true leaves in each well using 12 channel pipettes. Data collection: RGB (red, green, blue) data for green area per well was documented using camera. Data is collected at a few time points during the experiment: one day after thinning and before chemical application, two-, six- or nine-days post application. During the last two documentations, visual phenotyping was performed. Data analysis: Given RGB results and visual phenotype scores, a student t-test conducted to compare between treatment and control performance for continuous data (RGB) and Fisher exact test to analyze the non-continuous data (phenotypic scores). Dose-Response curves are generated for each treatment to infer ED50 and max. inhibition parameters, using treatment's log concentration range as the […] and normalized green area. […] Plate imaging performed at 11 and 18 DAA. RGB data for green area per well was documented and used to extract % inhibition. Dose-Response curves were built for each treatment to infer EC50, EC75 and EC90 parameters, using treatment's log concentration range as the independent variable and normalized green area as the dependent variable. Treatments were compared to controls performance given RGB results and using student's t-test (p-val≤0.05). Compounds 104-154 were applied in either or both pre- and post-emergence mode to either or both monocot and dicot model plants, following the methods described above. The compounds were applied as a gradient of concentrations as listed above, from which the ED50 was calculated."}, "Digitaria sanguinalis": {"test_system": "Digitaria sanguinalis", "test": "LTP post-emergence greenhouse test", "details": "Dosage 2000 g/ha"}, "Echinochloa colon": {"test_system": "Echinochloa colon", "test": "LTP post-emergence greenhouse test", "details": "Dosage 2000 g/ha"}, "Amaranthus tuberculatus": {"test_system": "Amaranthus tuberculatus", "test": "LTP post-emergence greenhouse test", "details": "Dosage 2000 g/ha", "protocol": "A basic panel of eight weed species (Table 3) sowed in 4×4×7 cm plastic pots containing a garden mix (klasmann). Each specie was sowed in a separate pot. In each pot, 10-15 seeds were sowed according to the specie viability. Timing of application determined at a 1-2 true leaf stage. The plants grew for 30 days in a controlled greenhouse (26±2° C. day, 20±2° C. night). Hood irrigation (tap water+Shefer 5:3:8 8 mM) was given at a 50% water content by weight. Two days before application, the tested plants thinned down to three plants per pot. Compounds were soluble in water (DDW), and commercial herbicide control was soluble in formulation B (Table 4). Before application, 1% (v/v) crop oil and 0.02% (v/v) surfactant (Tergitol™ 15-S-7) were added to the solution. […] Plants were evaluated at 3 time points (4, 8, 12 days after application (DAA)). At each time point, visual phenotyping was recorded using a scale of 0-6 (0: no visible effect, 6: maximum effect). […]\nPost-emergence advanced wide panel experiment included 24 weed species (Table 5). […] Visual phenotyping was recorded at 4, 11, 17 and 20 DAA using a scale of 0-6 (0: no visible effect, 6: maximum effect). […] Statistical analysis for visual phenotyping determined by a median value of ≥3.5 and Fisher test (pval≤0.05). Statistical analysis for dry weight determined by % inhibition ≥50 and T test (pval≤0.05), as well as Wilcox test (pval≤0.05)."}, "Lolium perenne": {"test_system": "Lolium perenne", "test": "LTP post-emergence greenhouse test", "details": "Dosage 2000 g/ha"}, "Abutilon theophrasti": {"test_system": "Abutilon theophrasti", "test": "LTP post-emergence greenhouse test", "details": "Dosage 2000 g/ha"}, "Echinochloa crus-galli": {"test_system": "Echinochloa crus-galli", "test": "LTP post-emergence greenhouse test", "details": "Dosage 2000 g/ha"}, "Ambrosia artemisiifolia": {"test_system": "Ambrosia artemisiifolia", "test": "LTP post-emergence greenhouse test", "details": "Dosage 2000 g/ha"}, "Lolium multiflorum": {"test_system": "Lolium multiflorum", "test": "LTP post-emergence greenhouse test", "details": "Dosage 2000 g/ha"}, "Poa annua": {"test_system": "Poa annua", "test": "LTP post-emergence greenhouse test", "details": "Dosage 2000 g/ha"}, "Arabidopsis thaliana": {"test_system": "Arabidopsis thaliana", "test": "HTPS post-emergence application on miniature dicot model plant", "details": "Arabidopsis thaliana, post-emergence, green area (RGB), read-out: Max Inhibition (%)", "protocol": "The plates were placed in a controlled greenhouse in a random order inside a bath which allows flooding irrigation with tap water supplemented with a fertilizer. Applied compounds were dissolved into a final solution of 50% acetone, 49.9% DDW, 0.1% tween-20. A 96 well plate was used as a stock plate for preparing application solutions for 8 repeats. Each row contained different concentrations per chemical. Maximal concentration for application was 1.5 Kg/Ha and dilution factor is 2.5. Chemical application was performed one day after thinning out in a chemical hood. […] applied on first two true leaves in each well using 12 channel pipettes. Data collection: RGB (red, green, blue) data for green area per well was documented using camera. Data is collected at a few time points during the experiment: one day after thinning and before chemical application, two-, six- or nine-days post application. During the last two documentations, visual phenotyping was performed. Data analysis: Given RGB results and visual phenotype scores, a student t-test conducted to compare between treatment and control performance for continuous data (RGB) and Fisher exact test to analyze the non-continuous data (phenotypic scores). Dose-Response curves are generated for each treatment to infer ED50 and max. inhibition parameters, using treatment's log concentration range as the […] variable and normalized green area. Plate imaging performed at 11 and 18 DAA. RGB data for green area per well was documented and used to extract % inhibition. Dose-Response curves were built for each treatment to infer EC50, EC75 and EC90 parameters, using treatment's log concentration range as the independent variable and normalized green area as the dependent variable. Treatments were compared to controls performance given RGB results and using student's t-test (p-val≤0.05). Compounds 104-154 were applied in either or both pre- and post-emergence mode to either or both monocot and dicot model plants, following the methods described above. The compounds were applied as a gradient of concentrations as listed above, from which the ED50 was calculated."}, "Amaranthus palmeri": {"test_system": "Amaranthus palmeri", "test": "LTP post-emergence greenhouse test", "details": "Dosage 2000 g/ha"}, "Chenopodium album": {"test_system": "Chenopodium album", "test": "LTP post-emergence greenhouse test", "details": "Dosage 2000 g/ha"}, "Galium aparine": {"test_system": "Galium aparine", "test": "LTP post-emergence greenhouse test", "details": "Dosage 2000 g/ha"}, "Setaria viridis": {"test_system": "Setaria viridis", "test": "LTP post-emergence greenhouse test", "details": "Dosage 2000 g/ha"}, "Stellaria media": {"test_system": "Stellaria media", "test": "LTP post-emergence greenhouse test", "details": "Dosage 2000 g/ha"}, "Phalaris minor": {"test_system": "Phalaris minor", "test": "LTP post-emergence greenhouse test", "details": "Dosage 2000 g/ha"}, "[1]": {"test_system": "monocot and eudicot weeds species", "test": "In-planta LTP weed panel, overall assessment", "details": "applied post-emergence; both monocot and dicot species"}, "Matricaria chamomilla": {"test_system": "Matricaria chamomilla", "test": "LTP post-emergence greenhouse test", "details": "Dosage 2000 g/ha"}, "Alopecurus myosuroides": {"test_system": "Alopecurus myosuroides", "test": "LTP post-emergence greenhouse test", "details": "Dosage 2000 g/ha"}, "Conyza canadensis": {"test_system": "Conyza canadensis", "test": "LTP post-emergence greenhouse test", "details": "Dosage 2000 g/ha"}},
  "data": [
    {"smiles": "NC1CCCC(CCCC(=O)O)C1", "note": "(centres unmarked) [Compound 145]", "values": [
      {"measurement": "Herbicidal activity (In-planta), LTP-Post emergence, Solanum nigrum", "setting": "Solanum nigrum", "result": "40-60"},
      {"measurement": "ED50 (g/ha)", "setting": "Eragrostis teff; dose-response of normalized green area", "result": 16.8, "unit": "g/ha"},
      {"measurement": "Max Inhibition (%)", "setting": "Eragrostis teff; green area (RGB)", "result": 100, "unit": "%"},
      {"measurement": "Herbicidal activity (In-planta), LTP-Post emergence, Digitaria sanguinalis", "setting": "Digitaria sanguinalis", "result": "60-80"},
      {"measurement": "Herbicidal activity (In-planta), LTP-Post emergence, Echinochloa colon", "setting": "Echinochloa colon", "result": "20-40"},
      {"measurement": "Herbicidal activity (In-planta), LTP-Post emergence, Amaranthus tuberculatus", "setting": "Amaranthus tuberculatus", "result": "40-60"},
      {"measurement": "Herbicidal activity (In-planta), LTP-Post emergence, Lolium perenne", "setting": "Lolium perenne", "result": "40-60"},
      {"measurement": "Herbicidal activity (In-planta), LTP-Post emergence, Abutilon theophrasti", "setting": "Abutilon theophrasti", "result": "20-40"},
      {"measurement": "Herbicidal activity (In-planta), LTP-Post emergence, Echinochloa crus-galli", "setting": "Echinochloa crus-galli", "result": "60-80"},
      {"measurement": "Herbicidal activity (In-planta), LTP-Post emergence, Ambrosia artemisiifolia", "setting": "Ambrosia artemisiifolia", "result": "20-40"},
      {"measurement": "Herbicidal activity (In-planta), LTP-Post emergence, Lolium multiflorum", "setting": "Lolium multiflorum", "result": "20-40"},
      {"measurement": "Herbicidal activity (In-planta), LTP-Post emergence, Poa annua", "setting": "Poa annua", "result": "20-40"},
      {"measurement": "Emax", "setting": "Arabidopsis thaliana", "result": 100, "unit": "%"},
      {"measurement": "Herbicidal activity (In-planta), LTP-Post emergence, Amaranthus palmeri", "setting": "Amaranthus palmeri", "result": "20-40"},
      {"measurement": "Herbicidal activity (In-planta), LTP-Post emergence, Chenopodium album", "setting": "Chenopodium album", "result": "40-60"},
      {"measurement": "Herbicidal activity (In-planta), LTP-Post emergence, Galium aparine", "setting": "Galium aparine", "result": "40-60"},
      {"measurement": "Herbicidal activity (In-planta), LTP-Post emergence, Setaria viridis", "setting": "Setaria viridis", "result": 60},
      {"measurement": "Herbicidal activity (In-planta), LTP-Post emergence, Stellaria media", "setting": "Stellaria media", "result": "20-40"},
      {"measurement": "Herbicidal activity (In-planta), LTP-Post emergence, Phalaris minor", "setting": "Phalaris minor", "result": 0},
      {"measurement": "activity (in words)", "setting": "[1]", "result": "good to moderate activity"},
      {"measurement": "Herbicidal activity (In-planta), LTP-Post emergence, Matricaria chamomilla", "setting": "Matricaria chamomilla", "result": 0},
      {"measurement": "Herbicidal activity (In-planta), LTP-Post emergence, Alopecurus myosuroides", "setting": "Alopecurus myosuroides", "result": "60-80"},
      {"measurement": "Herbicidal activity (In-planta), LTP-Post emergence, Conyza canadensis", "setting": "Conyza canadensis", "result": "40-60"}
    ]}
  ]
}
